Holding throughout (format): in vivo
Test [1] relates to Echinochloa crus-galli var. crus-galli. As to the kind of experiment: Test Example 3: herbicidal effect by application to foliage (Wagner pot, water depth 0.1-0.5 cm). To be noted: Nineteenth Table; application to foliage; application herbicide amount 320 g/ha. The method, boiled down:
(§1)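 Foliar spray, 14-day-old plants, emulsion diluted to target g/ha; rated 3 wk post-application, 0–5 scale (0 ≤5%, 5 ≥90% herbicidal ratio). Greenhouse 25–30 °C, alluvial soil.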

Test [2] has as its system Cyperus difformis. The description is as above. The note with it: Nineteenth Table; application to foliage; application herbicide amount 320 g/ha. An outline of the steps:
as §1

The test system of test [3] is Leptochloa chinensis. Described as above. To be noted: Nineteenth Table; application to foliage; application herbicide amount 320 g/ha. An outline of the steps: as §1
Test [4] deals with Scirpus juncoides. As to the kind of experiment: Test Example 1: herbicidal activity, application before weed generation in submerged conditions. The note with it: Application herbicide amount 320 g/ha; Seventeenth Table. An outline of the steps: (§2)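 Pre-emergence water-surface application under 4 cm flooding, same day as sowing, with rice transplanted at 2.5 leaf stage. Dose given as g/ha. Plants grown at 25° C. to 30° C. and rated three weeks later on a 0 (≤5%) to 5 (≥90%) herbicidal-ratio scale.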

The subject of test [5] is Echinochloa oryzacola Vasing. The description is as above. The note with it: Application herbicide amount 320 g/ha; Seventeenth Table. The method, boiled down: as §2
For test [6], the system named is Monochoria vaginalis. Described as above. The note with it: Application herbicide amount 320 g/ha; Seventeenth Table. An outline of the steps:
as §2

For the compound `COCCSc1nnc2c(C(=O)Nc3nnc(C)o3)ccc(C(F)(F)F)n12` [1-063], the “H (herbicidal effect grade)” value in test [1] is given as 5 (Herbicidal ratio of 90% or more (almost completely withered)). Also, the “E (herbicidal effect grade)” value in test [2] is reported as 5 (Herbicidal ratio of 90% or more (almost completely withered)). The “D (herbicidal effect grade)” value in test [3] was 5 (Herbicidal ratio of 90% or more (almost completely withered)). In addition, in test [4], the “B: Scirpus juncoides (herbicidal effect grade)” value (shortened to “B: Scirpus juncoides”) was 4 (Herbicidal ratio of 70% or more and less than 90%). In addition, the “A: Echinochloa oryzicola Vasing. (herbicidal effect grade)” value in test [5] is 5 (Herbicidal ratio of 90% or more (almost completely withered)). Moreover, the “C: Monochoria vaginalis (herbicidal effect grade)” value (“C: Monochoria vaginalis” for short) in test [6] is 3 (Herbicidal ratio of 40% or more and less than 70%).
In the case of `CCOc1nnc2c(C(=O)Nc3nnco3)ccc(C(F)(F)F)n12` [1-112], in test [1], the “H (herbicidal effect grade)” value is 3 (Herbicidal ratio of 40% or more and less than 70%). In addition, in test [2], the “E (herbicidal effect grade)” value is 1 (Herbicidal ratio of 5% or more and less than 20%). Further, the “D (herbicidal effect grade)” value in test [3] is 2 (Herbicidal ratio of 20% or more and less than 40%). Further, the “B: Scirpus juncoides” value in test [4] was 3 (Herbicidal ratio of 40% or more and less than 70%). Further, in test [5], the “A: Echinochloa oryzicola Vasing. (herbicidal effect grade)” value is 3 (Herbicidal ratio of 40% or more and less than 70%). Also, the “C: Monochoria vaginalis” value in test [6] was 2 (Herbicidal ratio of 20% or more and less than 40%).
Consider `O=C(Nc1nnco1)c1ccc(C(F)(F)F)n2c(C3CC3)nnc12` [1-144], for which the “H (herbicidal effect grade)” value in test [1] is recorded as 5 (Herbicidal ratio of 90% or more (almost completely withered)). Moreover, the “E (herbicidal effect grade)” value in test [2] was 2 (Herbicidal ratio of 20% or more and less than 40%). Besides, the “D (herbicidal effect grade)” value in test [3] was 4 (Herbicidal ratio of 70% or more and less than 90%). In test [4], the “B: Scirpus juncoides” value was 3 (Herbicidal ratio of 40% or more and less than 70%). Moreover, the “A: Echinochloa oryzicola Vasing. (herbicidal effect grade)” value in test [5] is 5 (Herbicidal ratio of 90% or more (almost completely withered)). Besides, the “C: Monochoria vaginalis” value in test [6] was 3 (Herbicidal ratio of 40% or more and less than 70%).
For `Cc1nnc(NC(=O)c2ccc(C(F)(F)F)n3c(N4CCSCC4)nnc23)o1` [1-118], the “H (herbicidal effect grade)” value in test [1] is 5 (Herbicidal ratio of 90% or more (almost completely withered)). Further, the “E (herbicidal effect grade)” value in test [2] was 3 (Herbicidal ratio of 40% or more and less than 70%). Further, the “D (herbicidal effect grade)” value in test [3] is on record as 5 (Herbicidal ratio of 90% or more (almost completely withered)). In test [4], the “B: Scirpus juncoides” value is 2 (Herbicidal ratio of 20% or more and less than 40%). Besides, the “A: Echinochloa oryzicola Vasing. (herbicidal effect grade)” value in test [5] was 3 (Herbicidal ratio of 40% or more and less than 70%). In addition, in test [6], the “C: Monochoria vaginalis” value was 0 (Herbicidal ratio of 5% or less (almost no effect)).
In the case of `Cc1nnc(NC(=O)c2ccc(C(F)(F)F)n3c(N(C)C4CCCCC4)nnc23)o1` [1-133], the “H (herbicidal effect grade)” value in test [1] was 4 (Herbicidal ratio of 70% or more and less than 90%). Also, the “E (herbicidal effect grade)” value in test [2] is 0 (Herbicidal ratio of 5% or less (almost no effect)). The “D (herbicidal effect grade)” value in test [3] was 2 (Herbicidal ratio of 20% or more and less than 40%). Also, the “B: Scirpus juncoides” value in test [4] is 3 (Herbicidal ratio of 40% or more and less than 70%). The “A: Echinochloa oryzicola Vasing. (herbicidal effect grade)” value in test [5] is recorded as 5 (Herbicidal ratio of 90% or more (almost completely withered)). The “C: Monochoria vaginalis” value in test [6] was 4 (Herbicidal ratio of 70% or more and less than 90%).
Consider `COc1ccc(-c2nnc3c(C(=O)Nc4nnco4)ccc(C(F)(F)F)n23)cc1` [1-149], for which, in test [1], the “H (herbicidal effect grade)” value is 5 (Herbicidal ratio of 90% or more (almost completely withered)). In test [2], the “E (herbicidal effect grade)” value was 5 (Herbicidal ratio of 90% or more (almost completely withered)). Moreover, in test [3], the “D (herbicidal effect grade)” value is listed as 5 (Herbicidal ratio of 90% or more (almost completely withered)). Also, the “B: Scirpus juncoides” value in test [4] is 4 (Herbicidal ratio of 70% or more and less than 90%). Also, the “A: Echinochloa oryzicola Vasing. (herbicidal effect grade)” value in test [5] is listed as 5 (Herbicidal ratio of 90% or more (almost completely withered)). In test [6], the “C: Monochoria vaginalis” value is 3 (Herbicidal ratio of 40% or more and less than 70%).
With `C#CCN(C)c1nnc2c(C(=O)Nc3nnc(C)o3)ccc(C(F)(F)F)n12` [1-152], in test [1], the “H (herbicidal effect grade)” value is on record as 5 (Herbicidal ratio of 90% or more (almost completely withered)). The “E (herbicidal effect grade)” value in test [2] was 4 (Herbicidal ratio of 70% or more and less than 90%). Further, in test [3], the “D (herbicidal effect grade)” value is 5 (Herbicidal ratio of 90% or more (almost completely withered)). The “B: Scirpus juncoides” value in test [4] is 4 (Herbicidal ratio of 70% or more and less than 90%). Moreover, the “A: Echinochloa oryzicola Vasing. (herbicidal effect grade)” value in test [5] was 5 (Herbicidal ratio of 90% or more (almost completely withered)). Further, the “C: Monochoria vaginalis” value in test [6] is 3 (Herbicidal ratio of 40% or more and less than 70%).
Take `Cn1nnnc1NC(=O)c1ccc(C(F)(F)F)n2c(Br)nnc12` [2-009]: in test [1], the “H (herbicidal effect grade)” value is 5 (Herbicidal ratio of 90% or more (almost completely withered)). In addition, in test [2], the “E (herbicidal effect grade)” value is 3 (Herbicidal ratio of 40% or more and less than 70%). Further, the “D (herbicidal effect grade)” value in test [3] was 4 (Herbicidal ratio of 70% or more and less than 90%). In test [4], the “B: Scirpus juncoides” value is 3 (Herbicidal ratio of 40% or more and less than 70%). In addition, the “A: Echinochloa oryzicola Vasing. (herbicidal effect grade)” value in test [5] is 3 (Herbicidal ratio of 40% or more and less than 70%). Further, the “C: Monochoria vaginalis” value in test [6] was 4 (Herbicidal ratio of 70% or more and less than 90%).
Turning to `CC(C)N(C)c1nnc2c(C(=O)Nc3nnco3)ccc(C(F)(F)F)n12` [1-122], the “H (herbicidal effect grade)” value in test [1] is 5 (Herbicidal ratio of 90% or more (almost completely withered)). Moreover, in test [2], the “E (herbicidal effect grade)” value is 5 (Herbicidal ratio of 90% or more (almost completely withered)). For the same compound, the “D (herbicidal effect grade)” value in test [3] is listed as 5 (Herbicidal ratio of 90% or more (almost completely withered)). Further, the “B: Scirpus juncoides” value in test [4] is recorded as 5 (Herbicidal ratio of 90% or more (almost completely withered)). Also, the “A: Echinochloa oryzicola Vasing. (herbicidal effect grade)” value in test [5] is recorded as 5 (Herbicidal ratio of 90% or more (almost completely withered)). For the same compound, the “C: Monochoria vaginalis” value in test [6] is 5 (Herbicidal ratio of 90% or more (almost completely withered)).
For the compound `COc1ccc(CSc2nnc3c(C(=O)Nc4nnc(C)o4)ccc(C(F)(F)F)n23)cc1` [1-114], the “H (herbicidal effect grade)” value in test [1] is 4 (Herbicidal ratio of 70% or more and less than 90%). Further, in test [2], the “E (herbicidal effect grade)” value is 2 (Herbicidal ratio of 20% or more and less than 40%). In test [3], the “D (herbicidal effect grade)” value was 4 (Herbicidal ratio of 70% or more and less than 90%). Moreover, in test [4], the “B: Scirpus juncoides” value is 2 (Herbicidal ratio of 20% or more and less than 40%). Also, the “A: Echinochloa oryzicola Vasing. (herbicidal effect grade)” value in test [5] is 3 (Herbicidal ratio of 40% or more and less than 70%). Besides, the “C: Monochoria vaginalis” value in test [6] is reported as 0 (Herbicidal ratio of 5% or less (almost no effect)).
